Results on 4 compounds are retold here after patent publication US20220354826A1, “PLEUROMUTILIN (E)-4-(1-IMIDAZOYLMETHYL )CINNAMIC ACID ESTER WITH ANTI-DRUG RESISTANT BACTERIA ACTIVITY AND A METHOD OF PREPARING THE SAME” (SHAANXI UNIVERSITY OF SCIENCE AND TECHNOLOGY, priority 2021, published 2022).

Type in all cases: cell-based
Experiment [1] has as its system multi-resistant Staphylococcus aureus 575 (MRSA-575). Description: Paper diffusion method drug sensitivity test, MRSA-575. The following applies: for Zone of inhibition: strain MRSA-575, drug sensitive paper 30 μg/tablet, 6.35 mm, LB plate, 37° C., 24 h, ≥17 mm sensitive, 15-16 mm intermediary, ≤14 mm resistance; for inhibitory effect (in words): multi-drug resistant Staphylococcus aureus 575, paper diffusion. Here is the method:
(§1) The antimicrobial efficacy was determined by a paper diffusion method drug sensitivity test.
(§2) Experimental strains: multi-resistant Staphylococcus aureus 171, multi-resistant Staphylococcus aureus 222, multi-resistant Staphylococcus aureus 575. The experimental strains were identified by Huashan Hospital Affiliated to Fudan University (Institute of Antibiotic of Fudan University).
(§3) Drug sensitive paper: The drug sensitive paper is a special drug sensitive paper with a diameter of 6.35 mm and a water absorption of 0.02 mL. The control drug was vancomycin (30 μg/tablet); the test drugs were pleuromutilin (E)-4-(1-imidazoyl-methyl)cinnamic acid ester (30 μg/tablet).
(§4) The experimental strains were inoculated in non-selective medium and placed in air at 37° C. for 24 h. Pick a single colony that grows well and inoculate it into broth medium, incubate at 35° C.±2° C. for 6 hours, and use LA broth medium to calibrate the concentration of the bacterial solution to 0.5 Mie turbidimetric tube ([…]). A bacterial suspension is obtained.
(§5) LB dry powder was weighed, sterilized at 103.4 Kpa, 121.3° C. high-pressure steam for 15 min, and then placed it in a 40° C.-50° C. water bath. A sterile empty plate (inner diameter 9 cm) was placed on the surface of the ultra-clean table water table, and […] to the plate. The thickness of each plate was 3 mm to 4 mm. After the plate was cooled at room temperature, it was stored in the refrigerator at 2° C.-8° C. A sterile cotton swab was used to dip the bacterial solution and to evenly coat the surface of the LB plate 3 times. After inoculation of the bacterial suspension, the LB plate was dried at room temperature for 3 min to 5 min. Sterile forceps were used to closely attach the antibacterial drug paper to the dish. The dish was put upside down and placed in a 37° C. incubator for 24 h. The results were observed by measuring the diameter. Taking 0.5% DMSO solution as a negative control, the antibacterial activity is expressed by the diameter of the inhibition zone. The inhibition zone ≥17 mm, sensitive; the inhibition zone of 15 mm-16 mm, intermediary; the inhibition zone ≤14 mm, drug resistance.

The subject of experiment [2] is multi-resistant Staphylococcus aureus 171 (MRSA-171). Description: Paper diffusion method drug sensitivity test, MRSA-171. The following applies: for Zone of inhibition: strain MRSA-171, drug sensitive paper 30 μg/tablet, 6.35 mm, LB plate, 37° C., 24 h, ≥17 mm sensitive, 15-16 mm intermediary, ≤14 mm resistance; for inhibitory effect (in words): multi-drug resistant Staphylococcus aureus 171, paper diffusion. Here is the method: as §1, §2, §3, §4, §5

The subject of experiment [3] is multi-resistant Staphylococcus aureus 222 (MRSA-222). Put plainly: Paper diffusion method drug sensitivity test, MRSA-222. The following applies: for Zone of inhibition: strain MRSA-222, drug sensitive paper 30 μg/tablet, 6.35 mm, LB plate, 37° C., 24 h, ≥17 mm sensitive, 15-16 mm intermediary, ≤14 mm resistance; for inhibitory effect (in words): multi-drug resistant Staphylococcus aureus 222, paper diffusion. As to the method: as §1, §2, §3, §4, §5

The structures appear in SMILES notation.

Take `CN[C@H](CC(C)C)C(=O)N[C@H]1C(=O)N[C@@H](CC(N)=O)C(=O)N[C@H]2C(=O)N[C@H]3C(=O)N[C@H](C(=O)N[C@H](C(=O)O)c4cc(O)cc(O)c4-c4cc3ccc4O)[C@H](O)c3ccc(c(Cl)c3)Oc3cc2cc(c3O[C@@H]2O[C@H](CO)[C@@H](O)[C@H](O)[C@H]2O[C@H]2C[C@](C)(N)[C@H](O)[C@H](C)O2)Oc2ccc(cc2Cl)[C@H]1O` [Vancomycin, vancomycin]: the Zone of inhibition worked out at 21 mm in experiment [1], 17 mm in experiment [2] and 18 mm in experiment [3].

As for `C=C[C@]1(C)C[C@@H](OC(=O)CO)[C@]2(C)[C@H](C)CC[C@]3(CCC(=O)[C@H]32)[C@@H](C)[C@@H]1O` [Pleuromutilin], the “inhibitory effect (in words)” value in experiment [1], in experiment [2] and in experiment [3] was “no inhibitory effect” in each case. Moreover, the Zone of inhibition in experiment [1], in experiment [2] and in experiment [3] was 0 mm throughout.

Consider `O=C(O)/C=C/c1ccc(Cn2ccnc2)cc1` [(E)-4-(1-imidazoylmethyl)cinnamic acid], for which the “inhibitory effect (in words)” value in experiment [1], in experiment [2] and in experiment [3] was “no inhibitory effect” each time. For the same compound, the Zone of inhibition in experiment [1], in experiment [2] and in experiment [3] was 0 mm each time.

Regarding `C=C[C@]1(C)C[C@@H](OC(=O)COC(=O)/C=C/c2ccc(Cn3ccnc3)cc2)[C@]2(C)[C@H](C)CC[C@]3(CCC(=O)[C@H]32)[C@@H](C)[C@@H]1O`, the “inhibitory effect (in words)” value in experiment [1], in experiment [2] and in experiment [3] was “strong inhibitory effects” in each case. For the same compound, the figures for the Zone of inhibition in experiment [1], in experiment [2] and in experiment [3] were 15 mm, 16 mm and 17 mm, respectively.
